What was measured:
BRD4 (BDI_K57-E168) = target: T1, BRD4 (BDI_K57-E168) (Homo sapiens, UniProt O60885); experiment: TR-FRET bromodomain binding assay, first bromodomain of BRD4; settings: His-tagged BD1, 100 nM Alexa647 probe; TR-FRET protocol A-E given per row
T1 construct: BD1: amino acids K57-E168; made in house
Procedure: (§1) A time-resolved fluorescence resonance energy transfer (TR-FRET) assay was used to determine the affinities of compounds of the Examples listed in Table 1 for each bromodomain of BRD4. His-tagged first (BD1: amino acids K57-E168) and second (BD2: amino acids E352-E168) bromodomains of BRD4 were expressed and purified. An Alexa647-labeled BET-inhibitor was used as the fluorescent probe in the assay.
(§2) Compound dilution series were prepared in DMSO via an approximately 3-fold serial dilution from one of the following:
Assay method A: 250 μM-4.2 nM
Assay method B: 0.47 mM to 7.8 nM
Assay method C: 500 μM-8.5 nM
(§3) Assay method D: 2.5 mM-800 nM
Assay method E: 0.047 mM to 0.78 nM or 5-fold serial dilution from Assay method D
For Assay methods A, C, and D: Compounds were then diluted 6:100 in assay buffer (20 mM Sodium Phosphate, pH 6.0, 50 mM NaCl, 1 mM Ethylenediaminetetraacetic acid, 0.01% Triton X-100, 1 mM DL-Dithiothreitol) to yield 3× working solutions. Six microliters (μL) of the working solution was then transferred to white, low-volume assay plates (Costar #3673). A 1.5× assay mixture containing His-tagged bromodomain, Europium-conjugated anti-His antibody (Invitrogen PV5596) and the Alexa-647-conjugated probe molecule was also prepared. Twelve μL of this solution were added to the assay plate to reach a final volume of 18 μL.
For Assay methods B and E: Compound dilutions were added directly into white, low-volume assay plates (Perkin Elmer Proxiplate 384 Plus #6008280) using a Labcyte Echo in conjunction with Labcyte Access and Thermo Multidrop CombinL robotics. Compounds were then suspended in eight microliters (μL) of assay buffer (20 mM Sodium Phosphate, pH 6.0, 50 mM NaCl, 1 mM Ethylenediaminetetraacetic acid disodium salt dihydrate, 0.01% Triton X-100, 1 mM DL-Dithiothreitol) containing His-tagged bromodomain, Europium-conjugated anti-His antibody (Invitrogen PV5596) and Alexa-647-conjugated probe.
The final concentration of 1× assay mixture for assay methods A, B, C, D, and E contains 2% DMSO, 8 nM His-tagged bromodomain, 1 nM Europium-conjugated anti-His-tag antibody and 100 nM or 30 nM probe (for BDI or BDII, respectively) and compound concentration in the range of: 5 μM-85 pM for method A, 9.19 μM 150 pM for method B, 10 μM-169 pM for method C, 50 μM-16 nM for method D, and 0.92 μM-15 pM for method E.
After a one-hour equilibration at room temperature, TR-FRET ratios were determined using an Envision multilabel plate reader (Ex 340, Em 495/520).
TR-FRET data were normalized to the means of 24 no-compound controls (“high”) and 8 controls containing 1 μM un-labeled probe (“low”). Percent inhibition was plotted as a function of compound concentration and the data were fit with the 4 parameter logistic equation to obtain IC50s Inhibition constants (Ki) were calculated from the IC50s, probe Kd and probe concentration. Typical Z′ values were between 0.65 and 0.75. The minimum significant ratio was determined to evaluate assay reproducibility (Eastwood et al., (2006) J Biomol Screen, 11: 253-261). The MSR was determined to be 2.03 for BDI and 1.93 for BDII, and a moving MSR (last six run MSR overtime) for both BDI and BDII was typically <3.

BRD4 (BDII_E352-M457) = target: T2, BRD4 (BDII_E352-M457) (Homo sapiens, UniProt O60885); experiment: TR-FRET bromodomain binding assay, second bromodomain of BRD4; settings: His-tagged BD2, 30 nM Alexa647 probe; TR-FRET protocol A-E given per row
T2 construct: proliferation; Protocol; made in house
Procedure: as §1, §2, §3
For Assay methods A, C, and D: Compounds were then diluted 6:100 in assay buffer (20 mM Sodium Phosphate, pH 6.0, 50 mM NaCl, 1 mM Ethylenediaminetetraacetic acid, 0.01% Triton X-100, 1 mM DL-Dithiothreitol) to yield 3× working solutions. […] Twelve μL of this solution were added to the assay plate to reach a final volume of 18 μL.
TR-FRET data were normalized to the means of 24 no-compound controls (“high”) and 8 controls containing 1 μM un-labeled probe (“low”). Percent inhibition was plotted as a function of compound concentration and the data were fit with the 4 parameter logistic equation to obtain IC50s Inhibition constants (Ki) were calculated from the IC50s, probe Kd and probe concentration. Typical Z′ values were between 0.65 and 0.75.

Row | SMILES | Ki (BRD4 (BDI_K57-E168)) | Ki (BRD4 (BDII_E352-M457))
1 | Cn1cc(-c2cc(NCc3cccc(C#N)c3)ccc2Oc2ccc(F)cc2F)c2cc[nH]c(=O)c21 [Example 172, 3-({[4-(2,4-difluorophenoxy)-3-(1-methyl-7-oxo-6,7-dihydro-1H-pyrrolo[2,3-c]pyridin-3-yl)phenyl]amino}methyl)benzonitrile] | 71 nM | 226 nM
2 | CCS(=O)(=O)Nc1ccc(Oc2ccc(F)cc2F)c(-c2cn(C)c3c(=O)[nH]c(C(=O)NCCN4CCCCC4)cc23)c1 [Example 198, 3-{2-(2,4-difluorophenoxy)-5-[(ethylsulfonyl)amino]phenyl}-1-methyl-7-oxo-N-[2-(piperidin-1-yl)ethyl]-6,7-dihydro-1H-pyrrolo[2,3-c]pyridine-5-carboxamide] | 3.18 nM | 10.9 nM
3 | CCS(=O)(=O)Nc1ccc(Oc2ccc(F)cc2)c(-c2cn(C)c3c(=O)[nH]ccc23)c1 [Example 15, N-[4-(4-fluorophenoxy)-3-(1-methyl-7-oxo-6,7-dihydro-1H-pyrrolo[2,3-c]pyridin-3-yl)phenyl]ethanesulfonamide] | 3.3 nM | 12 nM
4 | Cn1cc(-c2cc(S(C)(=O)=O)ccc2NCC(F)(F)C(F)(F)C(F)(F)F)c2cc[nH]c(=O)c21 [Example 70, 3-{2-[(2,2,3,3,4,4,4-heptafluorobutyl)amino]-5-(methylsulfonyl)phenyl}-1-methyl-1,6-dihydro-7H-pyrrolo[2,3-c]pyridin-7-one] | 613 nM | 1660 nM
5 | Cn1cc(-c2cc(NC(=O)Cc3ccc(Cl)cc3F)ccc2Oc2ccc(F)cc2F)c2cc[nH]c(=O)c21 [Example 160, 2-(4-chloro-2-fluorophenyl)-N-[4-(2,4-difluorophenoxy)-3-(1-methyl-7-oxo-6,7-dihydro-1H-pyrrolo[2,3-c]pyridin-3-yl)phenyl]acetamide] | 101 nM | > 408 nM
6 | CCOC(=O)c1cc2c(-c3cn(C)c4c(=O)[nH]ccc34)c(OCC3CC3)ccc2[nH]1 [Example 99, ethyl 5-(cyclopropylmethoxy)-4-(1-methyl-7-oxo-6,7-dihydro-1H-pyrrolo[2,3-c]pyridin-3-yl)-1H-indole-2-carboxylate] | > 2380 nM | 2430 nM
7 | Cc1c[nH]c(=O)c2c1c(-c1cc(S(C)(=O)=O)ccc1Oc1ccc(F)cc1F)cn2C [Example 123, 3-[2-(2,4-difluorophenoxy)-5-(methylsulfonyl)phenyl]-1,4-dimethyl-1,6-dihydro-7H-pyrrolo[2,3-c]pyridin-7-one] | 130 nM | 428 nM
8 | Cn1cc(-c2cc(NC(=O)Cc3cc(Cl)ccc3F)ccc2Oc2ccc(F)cc2F)c2cc[nH]c(=O)c21 [Example 159, 2-(5-chloro-2-fluorophenyl)-N-[4-(2,4-difluorophenoxy)-3-(1-methyl-7-oxo-6,7-dihydro-1H-pyrrolo[2,3-c]pyridin-3-yl)phenyl]acetamide] | 62.4 nM | 59.6 nM
9 | Cn1cc(-c2cc(S(C)(=O)=O)ccc2OCCc2ccccc2)c2cc[nH]c(=O)c21 [Example 37, 1-methyl-3-[5-(methylsulfonyl)-2-(2-phenylethoxy)phenyl]-1,6-dihydro-7H-pyrrolo[2,3-c]pyridin-7-one] | 52 nM | 99 nM
10 | CCc1cc(Oc2ccc(S(=O)(=O)CC)cc2-c2cn(C)c3c(=O)[nH]ccc23)ccc1Cl [Example 79, 3-[2-(4-chloro-3-ethylphenoxy)-5-(ethylsulfonyl)phenyl]-1-methyl-1,6-dihydro-7H-pyrrolo[2,3-c]pyridin-7-one] | 150 nM | 84 nM
11 | Cn1cc(-c2cc(S(C)(=O)=O)ccc2NCC2CCCCC2)c2cc[nH]c(=O)c21 [Example 47, 3-{2-[(cyclohexylmethyl)amino]-5-(methylsulfonyl)phenyl}-1-methyl-1,6-dihydro-7H-pyrrolo[2,3-c]pyridin-7-one] | 33 nM | 124 nM
12 | Cn1cc(-c2cc(CS(C)(=O)=O)ccc2Oc2ccc(F)cc2F)c2cc(-c3cc(CS(C)(=O)=O)ccc3Oc3ccc(F)cc3F)[nH]c(=O)c21 [Example 93, 3,5-bis{2-(2,4-difluorophenoxy)-5-[(methylsulfonyl)methyl]phenyl}-1-methyl-1,6-dihydro-7H-pyrrolo[2,3-c]pyridin-7-one] | 484 nM | 619 nM
13 | Cn1cc(-c2cc(NCc3ccc(Oc4ccccc4)cc3)ccc2Oc2ccc(F)cc2F)c2cc[nH]c(=O)c21 [Example 173, 3-{2-(2,4-difluorophenoxy)-5[(4-phenoxybenzyl)amino]phenyl}-1-methyl-1,6-dihydro-7H-pyrrolo[2,3-c]pyridin-7-one] | 214 nM | 781 nM
14 | Cc1cc(CC(=O)Nc2ccc(Oc3ccc(F)cc3F)c(-c3cn(C)c4c(=O)[nH]ccc34)c2)nn1C [Example 164, N-[4-(2,4-difluorophenoxy)-3-(1-methyl-7-oxo-6,7-dihydro-1H-pyrrolo[2,3-c]pyridin-3-yl)phenyl]-2-(1,5-dimethyl-1H-pyrazol-3-yl)acetamide] | 11 nM | 73 nM
15 | Cn1cc(-c2cc(S(C)(=O)=O)ccc2OCCC2CCCC2)c2cc[nH]c(=O)c21 [Example 35, 3-[2-(2-cyclopentylethoxy)-5-(methylsulfonyl)phenyl]-1-methyl-1,6-dihydro-7H-pyrrolo[2,3-c]pyridin-7-one] | 42 nM | 111 nM
16 | Cn1cc(-c2cc(NC(=O)Cc3noc4ccccc34)ccc2Oc2ccc(F)cc2F)c2cc[nH]c(=O)c21 [Example 158, 2-(1,2-benzoxazol-3-yl)-N-[4-(2,4-difluorophenoxy)-3-(1-methyl-7-oxo-6,7-dihydro-1H-pyrrolo[2,3-c]pyridin-3-yl)phenyl]acetamide] | 76.4 nM | 153 nM
17 | Cn1cc(-c2cc(CNC3CCNCC3)ccc2Oc2ccc(F)cc2F)c2cc[nH]c(=O)c21 [Example 112, 3-{2-(2,4-difluorophenoxy)-5-[(piperidin-4-ylamino)methyl]phenyl}-1-methyl-1,6-dihydro-7H-pyrrolo[2,3-c]pyridin-7-one] | 1050 nM | 1050 nM
18 | Cn1cc(-c2cc(S(C)(=O)=O)ccc2NCC(F)(F)F)c2cc[nH]c(=O)c21 [Example 69, 1-methyl-3-{5-(methylsulfonyl)-2-[(2,2,2-trifluoroethyl)amino]phenyl}-1,6-dihydro-7H-pyrrolo[2,3-c]pyridin-7-one] | 773 nM | 2290 nM
19 | CCS(=O)(=O)c1ccc(Oc2ccc(C#N)cc2OC)c(-c2cn(C)c3c(=O)[nH]ccc23)c1 [Example 80, 4-[4-(ethylsulfonyl)-2-(1-methyl-7-oxo-6,7-dihydro-1H-pyrrolo[2,3-c]pyridin-3-yl)phenoxy]-3-methoxybenzonitrile] | 56 nM | 53 nM
20 | Cn1cc(-c2cc(NCc3c(F)cccc3F)ccc2Oc2ccc(F)cc2F)c2cc[nH]c(=O)c21 [Example 175, 3-{5-[(2,6-difluorobenzyl)amino]-2-(2,4-difluorophenoxy)phenyl}-1-methyl-1,6-dihydro-7H-pyrrolo[2,3-c]pyridin-7-one] | 69.1 nM | 285 nM
21 | CCS(=O)(=O)c1cnc(Oc2ccc(F)cc2F)c(-c2cn(C)c3c(=O)[nH]ccc23)c1 [Example 59, 3-[2-(2,4-difluorophenoxy)-5-(ethylsulfonyl)pyridin-3-yl]-1-methyl-1,6-dihydro-7H-pyrrolo[2,3-c]pyridin-7-one] | 606 nM | 600 nM

— patent publication US9321764B2, “Dihydro-pyrrolopyridinone inhibitors” (AbbVie Inc., priority 2013, dated 2016)
